One compound from patent publication US20240166626A1, “Compounds and Methods for Preventing, Treating, or Ameliorating Airway Disease” (THOMAS JEFFERSON UNIVERSITY, priority 2021, published 2024) can be followed below.

The target of the assay is β2AR (Homo sapiens, UniProt P07550). As to the kind of experiment: BRET analysis of β-arrestin2 binding to the β2AR in HEK 293 cells. It counts as cell-based. The method, then:
Schematic of screening methodologies for cAMP production and β-arrestin binding. Cells were treated with the unbiased beta-agonist isoproterenol (ISO)±test compounds. The primary high throughput screen utilized a luciferase-based cAMP biosensor, GLOSENSORTM (Promega), and an enzyme complementation-based assay, […]® (DiscoveRx). Independent secondary screening utilized a cAMP ELISA and BRET for β-arrestin recruitment. […] Secondary screen for cAMP production by ELISA. […] Cells were lysed and cAMP production was measured. […] Dose response curve for DFPQ as measured by BRET. […] Data for dose response curve was taken 12 min post ISO addition. n=3. […] Cells were lysed and cAMP production was measured by ELISA. […] Cells were read every 2 min post agonist addition. […] Cells were read every three minutes for 18 minutes on a PolarStar Optima plate reader (BMG) to establish peak signal. […] Luminescence was determined at room temperature (23-25° C.) on a PolarStar Optima plate reader (BMG). […] Relative assay bias was calculated from the ratio of normalized cAMP and arrestin recruitment responses. […] BRET was measured using a Tecan Infinite F500 microplate reader. […] Bound [35 S]GTPγS was collected by rapid filtration on GF/B filters, washed 4 times with 4 ml of cold GTPγS wash buffer and analyzed by liquid scintillation counting. […] Band intensity was measured by densitometry using ImageJ. […]
Background: In BRET a luciferase serves as donor, and the signal depends on an acceptor being close.

Each structure is given as a SMILES string.

Chain of β2AR (P07550 whole entry): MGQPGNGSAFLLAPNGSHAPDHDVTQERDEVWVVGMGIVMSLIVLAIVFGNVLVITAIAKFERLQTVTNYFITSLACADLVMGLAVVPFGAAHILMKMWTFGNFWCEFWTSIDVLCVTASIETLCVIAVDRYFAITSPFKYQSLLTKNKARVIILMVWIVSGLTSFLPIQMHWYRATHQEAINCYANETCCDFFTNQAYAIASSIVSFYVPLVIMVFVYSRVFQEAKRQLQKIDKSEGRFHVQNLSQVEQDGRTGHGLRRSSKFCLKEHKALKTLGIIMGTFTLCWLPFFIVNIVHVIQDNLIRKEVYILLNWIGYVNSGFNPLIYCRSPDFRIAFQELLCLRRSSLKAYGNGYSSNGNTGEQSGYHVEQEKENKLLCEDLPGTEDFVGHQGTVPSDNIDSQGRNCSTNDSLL

Regarding `Fc1ccc(Nc2nc(NC3CCCCC3)c3ccccc3n2)cc1F` [DFPQ, N^4-cyclohexyl-N^2-(3,4-difluorophenyl)quinazoline-2,4-diamine], the “β-arrestin2 recruitment to the β2AR” value (10 μM DFPQ, over the measured time course, FIG. 2A) is “fully inhibited”. The “mode of inhibition, global curve fitting and Schild analysis of ISO dose response curves” value (β-arrestin recruitment readout, FIG. 1D) is recorded as “non-competitive inhibition”.
